These results are taken from patent US20220402948A1, “EGFR INHIBITOR, COMPOSITION AND PREPARATION METHOD THEREFOR” (BETTA PHARMACEUTICALS CO., LTD., priority 2019, published 2022).

Experiment [1] deals with EGFRΔ19del/T790M/C797S (Homo sapiens, UniProt P00533, T790M/C797S, form not given). The experiment can be described thus: EGFR Δ19del/T790M/C797S kinase test (mobility variation analysis, Caliper EZ Reader). It counts as biochemical. The settings on record: kinase enzymatic activity, Table 1. The protocol:
(§1) Mobility variation analysis was performed to determine the affinity of the compound for EGFRΔ19del/T790M/C797S, EGFR WT and IGF1R. The enzymatic reaction scheme is as follows:
(§2) 1. Prepare 1*kinase buffer as follows.
(§3) 3. […] Prepare 2.5-fold final concentration of kinase solution with 1×Kinase buffer.
(§4) 4. Add 10 μL of 2.5-fold final concentration of kinase solution to the compound well and the positive control well; add 10 μL of 1×Kinase buffer to the negative control well.
(§5) 5. Centrifuge at 1000 rpm for 30 s, shake the reaction plate for well mixing, and then incubate at room temperature for 10 minutes.
(§6) 6. Prepare a mixture of ATP and Kinase substrate at 5/3-fold final concentration with 1×Kinase buffer.
(§7) 8. Centrifuge the 384-well plate at 1000 rpm for 30 s, shake it well and then incubate it at room temperature for corresponding time.
(§8) 9. Add 30 μL of stop detection solution to stop the kinase reaction, centrifuge at 1000 rpm for 30 s, and shake it well.
(§9) 10. Read conversion rate with Caliper EZ Reader.
(§10) % Inhibition=((Conversion%_max−Conversion%_sample)/(Conversion%_max−Conversion%_min))*100
(§11) Wherein: Conversion%_sample is the sample conversion rate reading; Conversion%_min: Mean value of negative control wells, representing the conversion rate reading of wells without enzymatic activity; Conversion%_max: Mean value of positive control wells, representing the conversion rate reading of wells without compound inhibition.
(§12) The dose-effect curve was fitted with concentration log value as X-axis and percentage inhibition rate as Y-axis. GraphPad Prism 5 analysis software was used for fitting Log (inhibitor) vs. response—Variable slope with the dose-effect curve to obtain IC50 value of enzymatic activity for each compound.
(§13) The calculation formula is as Y-Bottom+(Top-Bottom)/(1+10^((Log IC50−X)*HillSlope)).

In experiment [2] the target is EGFR WT (Homo sapiens, UniProt P00533). The experiment is described as follows: EGFR WT kinase test (mobility variation analysis, Caliper EZ Reader). It counts as biochemical. Particulars: kinase enzymatic activity, Table 1. The protocol: as §1, §2, §3, §4, §5, §6, §7, §8, §9, §10, §11, §12, §13
Experiment [3] deals with IGF1R (Homo sapiens, UniProt P08069). The experiment can be described thus: IGF1R kinase test (mobility variation analysis, Caliper EZ Reader). It counts as biochemical. Particulars: kinase enzymatic activity, Table 1; read-out: EGFR IGF1R IC50. The protocol:
as §1, §2
2. Preparation of compound concentration gradient: The test compound was tested with an initial concentration of 3000 nM (300 nM for some triple mutations and 100 nM for others), diluted in a 384 source plate (96-well plate for comparative compound 1 and compounds 1-38) to a 100% DMSO solution with 100-fold final concentration, and the compound is 3-fold diluted with Precision to 10 concentrations. A dispenser Echo 550 was used to transfer 250 nL 100-fold final concentration of the compound to the target plate OptiPlate-384F.
3. Prepare 2.5-fold final concentration (5-fold for comparative compound 1 and compounds 1-38) of kinase solution with 1×Kinase buffer. Following steps should also be carried out for comparative compound 1 and compounds 1-38: Add each prepared intermediate dilution compounds to the compound wells of 384-well plate respectively, and test the repeated wells of each concentration; add 5% DMSO of 5 plates into the negative control well and the positive control well respectively. Prepare 2.5-fold final concentration of kinase solution with 1×Kinase buffer.
as §4, §5, §6
7. Add 15 μL mixture of 5/3-fold (2.5-fold for comparative compound 1 and compounds 1-38) final concentration of ATP and substrate to start reaction.
as §7, §8, §9, §10, §11, §12, §13

Experiment [4] addresses Ba/F3 cells with EGFR Δ19del/T790M/C797S mutation gene stably overexpressed (Homo sapiens, UniProt P00533, T790M/C797S, cells depend on it, form not given). The experiment can be described thus: Ba/F3-Δ19del/T790M/C797S cell proliferation assay (CellTiter Glo, 72 hours). Format: cell-based. The settings on record: Table 2, read-out: EGFR Δ19del/T790M/C797S IC50. The protocol: (§14) Cell line: Ba/F3 cells with EGFR Δ19del/T790M/C797S mutation gene stably overexpressed named Ba/F3-Δ119del/T90M/C797S, and A431 and Ba/F3-EGFR wild-type cell line.
(§15) a) Centrifuge the growth cells in logarithmic phase at 1000 rpm for 5 minutes, resuspend the cells in culture medium, and then count the cells;
(§16) b) Inoculate the cells into a 96-well cell culture plate with a density of 2000 cells/well;
(§17) b) Incubate cells in an incubator for another 72 hours.
(§18) a) Take out the 96-well cell culture plate and add 50 μl CTG reagent (CellTiter Glo kit, promega, Cat #G7573);
(§19) b) Shake the plate for 2 minutes and let cool at room temperature for 10 minutes;
(§20) c) Read luminous signal value with PerkinElmer reader,
(§21) Analysis of Experimental Data
(§22) The data were analyzed by GraphPad Prism 6.0 software to obtain the fitting curve of compound activity.
(§23) Y=Min+(Max−Min)/(1+10^((Log IC50−X)*slope));
(§24) X: Logarithm of compound concentration; Y: luminous signal.
For orientation: Cellular ATP, detected with luciferase, serves as a proxy for viable cell number.

For experiment [5], the system named is A431. The experiment can be described thus: A431 cell proliferation assay (CellTiter Glo, 72 hours). It counts as cell-based. Particulars: cell proliferation, A431, 72 hours, Table 2, read-out: A431 IC50. The protocol: as §14
RPMI 1640 and 10% FBS and 1% PS; DMEM and 10% FBS and 1% PS.
a) Dilute the test compound (20 mM stock solution) to 10 mM with 100% DMSO as the starting concentration, and then serially dilute 3 times with a “9+0” concentration in 96-well dilution plate (Cat #P-05525, Labcyte);
b) Dilute compound solution thereof to 1:100 (1:20 for comparative compound 1 and compounds 1-38) in medium to prepare 10-fold working solution;
as §15, §16
a) Compounds prepared at step 2 were added to cell plate with 15 μl per well, the final concentrations were 1000, 333, 111.1, 37, 12.3, 4.1, 1.4, 0.5, 0.2 and 0 nM, and the final concentration of DMSO was 0.1%. The blank control well was a culture medium (0.1% DMSO) (the blank control well of comparative compound 1 and compounds 1-38 was a culture medium (0.5% DMSO).
as §17, §18, §19, §20, §21, §22
Fitting compound IC50 from nonlinear regression equation:
as §23, §24

Where two headings read alike, the source gives them in different places.

Chain of IGF1R (P08069 31-1367, species assumed): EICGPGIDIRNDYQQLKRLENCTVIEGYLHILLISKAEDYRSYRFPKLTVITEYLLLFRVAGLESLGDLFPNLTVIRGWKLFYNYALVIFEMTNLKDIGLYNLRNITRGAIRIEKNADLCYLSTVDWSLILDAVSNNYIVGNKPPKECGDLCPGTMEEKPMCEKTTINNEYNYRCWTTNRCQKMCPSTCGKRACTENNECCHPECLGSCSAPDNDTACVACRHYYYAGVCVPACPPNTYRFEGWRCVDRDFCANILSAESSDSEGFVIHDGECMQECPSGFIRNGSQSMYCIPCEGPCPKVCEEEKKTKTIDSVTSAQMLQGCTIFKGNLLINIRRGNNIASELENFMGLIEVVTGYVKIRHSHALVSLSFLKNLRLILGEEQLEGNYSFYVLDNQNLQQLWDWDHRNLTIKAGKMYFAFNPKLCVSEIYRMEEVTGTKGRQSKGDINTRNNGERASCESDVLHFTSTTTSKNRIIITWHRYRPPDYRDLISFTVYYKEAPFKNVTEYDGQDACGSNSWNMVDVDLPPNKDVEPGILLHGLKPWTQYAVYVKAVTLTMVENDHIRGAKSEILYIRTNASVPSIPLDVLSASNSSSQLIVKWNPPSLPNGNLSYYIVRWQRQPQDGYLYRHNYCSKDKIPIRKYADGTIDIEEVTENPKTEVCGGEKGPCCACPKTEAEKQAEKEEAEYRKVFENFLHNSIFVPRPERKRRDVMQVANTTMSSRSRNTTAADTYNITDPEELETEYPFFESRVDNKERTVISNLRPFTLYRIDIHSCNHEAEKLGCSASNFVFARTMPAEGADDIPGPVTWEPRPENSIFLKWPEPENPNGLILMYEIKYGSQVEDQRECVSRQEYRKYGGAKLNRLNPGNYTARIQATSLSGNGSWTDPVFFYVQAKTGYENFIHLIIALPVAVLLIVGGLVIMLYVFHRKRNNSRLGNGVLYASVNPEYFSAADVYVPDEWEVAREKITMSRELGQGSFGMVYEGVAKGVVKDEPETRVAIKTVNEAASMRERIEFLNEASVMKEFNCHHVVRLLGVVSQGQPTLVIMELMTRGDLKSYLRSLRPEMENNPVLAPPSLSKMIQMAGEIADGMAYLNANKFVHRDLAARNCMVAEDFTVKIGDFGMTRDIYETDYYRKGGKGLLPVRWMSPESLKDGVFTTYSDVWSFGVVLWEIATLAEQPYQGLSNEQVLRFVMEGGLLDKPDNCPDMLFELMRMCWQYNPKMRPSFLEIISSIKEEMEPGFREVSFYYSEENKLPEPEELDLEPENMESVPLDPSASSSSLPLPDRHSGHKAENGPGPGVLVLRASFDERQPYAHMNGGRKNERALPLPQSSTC
Chain of EGFRΔ19del/T790M/C797S (P00533 with tags, fused parts or gaps DEL746-750/T790M/C797S, form open): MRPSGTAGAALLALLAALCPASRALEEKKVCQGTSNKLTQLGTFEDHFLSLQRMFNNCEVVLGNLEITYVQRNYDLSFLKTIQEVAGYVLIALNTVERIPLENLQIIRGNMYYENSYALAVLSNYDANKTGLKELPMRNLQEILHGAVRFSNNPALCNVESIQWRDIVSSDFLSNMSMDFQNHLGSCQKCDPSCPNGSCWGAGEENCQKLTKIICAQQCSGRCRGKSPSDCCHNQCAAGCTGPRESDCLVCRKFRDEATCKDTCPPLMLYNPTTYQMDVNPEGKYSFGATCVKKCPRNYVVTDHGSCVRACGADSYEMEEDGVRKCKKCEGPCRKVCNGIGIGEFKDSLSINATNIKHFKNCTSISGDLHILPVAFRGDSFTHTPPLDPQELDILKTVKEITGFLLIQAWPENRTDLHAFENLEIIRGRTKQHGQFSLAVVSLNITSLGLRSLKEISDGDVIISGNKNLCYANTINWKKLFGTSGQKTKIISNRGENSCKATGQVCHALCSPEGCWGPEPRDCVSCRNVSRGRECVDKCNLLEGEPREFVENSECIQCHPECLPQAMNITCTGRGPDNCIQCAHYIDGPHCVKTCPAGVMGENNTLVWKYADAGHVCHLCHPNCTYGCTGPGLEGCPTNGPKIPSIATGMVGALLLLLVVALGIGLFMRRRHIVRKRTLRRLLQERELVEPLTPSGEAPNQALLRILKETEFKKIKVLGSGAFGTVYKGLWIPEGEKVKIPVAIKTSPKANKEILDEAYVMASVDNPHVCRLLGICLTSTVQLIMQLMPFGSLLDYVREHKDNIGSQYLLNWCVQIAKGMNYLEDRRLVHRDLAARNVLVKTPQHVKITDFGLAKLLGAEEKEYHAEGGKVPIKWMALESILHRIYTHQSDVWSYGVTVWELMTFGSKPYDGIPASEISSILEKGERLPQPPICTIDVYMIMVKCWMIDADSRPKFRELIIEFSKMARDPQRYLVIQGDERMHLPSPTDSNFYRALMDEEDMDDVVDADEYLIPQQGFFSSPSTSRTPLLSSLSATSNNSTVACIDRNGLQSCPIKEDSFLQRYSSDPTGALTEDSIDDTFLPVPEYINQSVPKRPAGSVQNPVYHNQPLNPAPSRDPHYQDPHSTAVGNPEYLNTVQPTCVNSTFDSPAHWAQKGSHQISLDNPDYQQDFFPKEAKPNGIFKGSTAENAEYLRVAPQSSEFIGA
Chain of Ba/F3 cells with EGFR Δ19del/T790M/C797S mutation gene stably overexpressed (P00533 with tags, fused parts or gaps DEL746-750/T790M/C797S, form open): as above
Chain of EGFR WT (P00533 25-1210): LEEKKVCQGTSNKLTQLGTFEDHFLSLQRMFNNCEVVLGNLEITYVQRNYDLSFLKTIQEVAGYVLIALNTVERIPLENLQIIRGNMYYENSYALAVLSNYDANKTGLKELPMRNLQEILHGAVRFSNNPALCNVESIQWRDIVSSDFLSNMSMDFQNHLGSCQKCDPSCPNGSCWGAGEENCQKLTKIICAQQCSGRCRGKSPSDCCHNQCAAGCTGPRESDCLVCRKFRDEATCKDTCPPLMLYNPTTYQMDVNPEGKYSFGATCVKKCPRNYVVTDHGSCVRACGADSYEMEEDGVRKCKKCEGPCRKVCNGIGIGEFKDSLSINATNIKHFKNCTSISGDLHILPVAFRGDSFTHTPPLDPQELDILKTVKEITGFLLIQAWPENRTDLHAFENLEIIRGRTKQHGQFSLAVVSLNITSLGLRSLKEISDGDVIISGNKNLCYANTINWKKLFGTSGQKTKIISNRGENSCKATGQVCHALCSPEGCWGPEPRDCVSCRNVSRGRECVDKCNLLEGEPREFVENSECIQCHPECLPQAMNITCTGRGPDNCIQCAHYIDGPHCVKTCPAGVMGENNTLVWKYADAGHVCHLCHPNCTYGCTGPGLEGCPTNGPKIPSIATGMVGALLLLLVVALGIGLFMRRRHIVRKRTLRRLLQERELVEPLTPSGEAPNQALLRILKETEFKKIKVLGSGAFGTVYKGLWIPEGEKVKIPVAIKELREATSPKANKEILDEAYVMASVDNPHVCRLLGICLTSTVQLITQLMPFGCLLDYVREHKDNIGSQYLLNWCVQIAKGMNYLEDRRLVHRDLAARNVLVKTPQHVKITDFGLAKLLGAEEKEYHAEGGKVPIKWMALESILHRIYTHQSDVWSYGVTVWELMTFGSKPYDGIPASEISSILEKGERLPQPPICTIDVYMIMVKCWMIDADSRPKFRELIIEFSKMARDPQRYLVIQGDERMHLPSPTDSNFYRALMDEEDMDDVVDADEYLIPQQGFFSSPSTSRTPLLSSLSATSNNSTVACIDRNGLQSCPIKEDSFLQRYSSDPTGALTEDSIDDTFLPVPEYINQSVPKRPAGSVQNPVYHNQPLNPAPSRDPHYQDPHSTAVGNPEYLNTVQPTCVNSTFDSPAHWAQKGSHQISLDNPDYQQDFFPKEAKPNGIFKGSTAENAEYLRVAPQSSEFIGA

In the case of `CCc1cc(Nc2ncc(Br)c(Nc3ccc(-c4cccc(C#N)c4)cc3P(C)(C)=O)n2)c(OC)cc1N1CCC(N2CCN(C)CC2)CC1` [Compound 5, 4′-((5-Bromo-2-((5-ethyl-2-methoxy-4-(4-(4-methylpiperazin-1-yl)piperidin-1-yl)phenyl)amino)pyrimidin-4-yl)amino)-3′-(dimethylphosphineoxide)-[1,1′-diphenyl]-3-carbonitrile], the IC50 (commonly the point on the concentration scale where inhibition reaches its midpoint) in experiment [1] was 0.0004 µM; in experiment [2], 0.0125 µM; in experiment [3], 0.117 µM; in experiment [5] (Homo sapiens, A-431, 72 h), above 10 µM. Also, in experiment [4], the GI50 was determined as 0.0187 µM.

In the case of `CCc1cc(Nc2ncc(Br)c(Nc3ccc(-c4ccc(F)cc4F)cc3P(C)(C)=O)n2)c(OC)cc1N1CCC(N2CCN(C)CC2)CC1` [Compound 6, (4-((5-Bromo-2-((5-ethyl-2-methoxy-4-(4-(4-methylpiperazin-1-yl)piperidin-1-yl)phenyl)amino)pyrimidin-4-yl)amino)-2′,4′-difluoro-[1,1′-biphenyl]-3-yl)dimethylphosphine oxide], the IC50 was 0.0009 µM in experiment [1]; 0.0167 µM in experiment [2]; 0.147 µM in experiment [3]; above 10 µM in experiment [5] (Homo sapiens, A-431, 72 h). Moreover, in experiment [4], the GI50 is 0.0214 µM.

For the compound `CCc1cc(Nc2ncc(Br)c(Nc3ccc(-c4nn(C)c5ncccc45)cc3P(C)(C)=O)n2)c(OC)cc1N1CCC(N2CCN(C)CC2)CC1` [Compound 9, (2-((5-Bromo-2-((5-ethyl-2-methoxy-4-(4-(4-methylpiperazin-1-yl)piperidin-1-yl)phenyl)amino)pyrimidin-4-yl)amino)-5-(1-methyl-1H-pyrazol[3,4-b]pyridin-3-yl)phenyl)dimethylphosphine oxide], the IC50 in experiment [1] stood at 0.0004 µM; in experiment [2] it was 0.0634 µM; in experiment [3] it was 0.826 µM; in experiment [5] (Homo sapiens, A-431, 72 h), 1.45 µM. For the same compound, the GI50 in experiment [4] is 0.0231 µM.

In the case of `CCc1cc(Nc2ncc(Br)c(Nc3ccc(-c4ccc(C#N)cc4)cc3P(C)(C)=O)n2)c(OC)cc1N1CCC(N2CCN(C)CC2)CC1` [Compound 10], the IC50 came to 0.0006 µM in experiment [1]; 0.0195 µM in experiment [2]; 0.109 µM in experiment [3]; 14.3 µM in experiment [5] (Homo sapiens, A-431, 72 h). Moreover, the GI50 in experiment [4] came to 0.0097 µM.

For the compound `CCc1cc(Nc2ncc(Br)c(Nc3ccc(-c4cccc5c4COC5)cc3P(C)(C)=O)n2)c(OC)cc1N1CCC(N2CCN(C)CC2)CC1` [Compound 11, (2-((5-Bromo-2-((5-ethyl-2-methoxy-4-(4-(4-methylpiperazin-1-yl)piperidin-1-yl)phenyl)amino)pyrimidin-4-yl)amino)-5-(1,3-dihydroisobenzofuran-4-yl)phenyl)dimethylphosphine oxide], the IC50 in experiment [1] was determined as 0.0006 µM; in experiment [2] it was 0.0286 µM; in experiment [3] it was 0.494 µM; in experiment [5] (Homo sapiens, A-431, 72 h), 1.02 µM. Also, in experiment [4], the GI50 was 0.0189 µM.

Turning to `CCc1cc(Nc2ncc(Br)c(Nc3ccc(-c4nccs4)cc3P(C)(C)=O)n2)c(OC)cc1N1CCC(N2CCN(C)CC2)CC1` [Compound 12, (2-((5-Bromo-2-((5-ethyl-2-methoxy-4-(4-(4-methylpiperazin-1-yl)piperidin-1-yl)phenyl)amino)pyrimidin-4-yl)amino)-5-(thiazol-2-yl)phenyl)dimethylphosphine oxide], the IC50 amounted to 0.0011 µM in experiment [1]; 0.013 µM in experiment [2]; 0.31 µM in experiment [3]; 0.989 µM in experiment [5] (Homo sapiens, A-431, 72 h). For the same compound, the GI50 in experiment [4] amounted to 0.0107 µM.

Consider `CCc1cc(Nc2ncc(Br)c(Nc3ccc(-c4cncc(OC)n4)cc3P(C)(C)=O)n2)c(OC)cc1N1CCC(N2CCN(C)CC2)CC1` [Compound 13], for which the IC50 in experiment [1] was found to be 0.0004 µM; in experiment [2], 0.0311 µM; in experiment [3], 0.182 µM; in experiment [5] (Homo sapiens, A-431, 72 h) it was 1.68 µM. The GI50 in experiment [4] came to 0.0405 µM.

In the case of `CCc1cc(Nc2ncc(Cl)c(Nc3ccc(-c4cscn4)cc3P(C)(C)=O)n2)c(OC)cc1N1CCC(N2CCN(C)CC2)CC1` [Compound 14, (2-((5-Chloro-2-((5-ethyl-2-methoxy-4-(4-(4-methylpiperazin-1-yl)piperidin-1-yl)phenyl)amino)pyrimidin-4-yl)amino)-5-(thiazol-4-yl)phenyl)dimethylphosphine oxide], the IC50 in experiment [1] stood at 0.0004 µM; in experiment [2], 0.0139 µM; in experiment [3], 0.149 µM; in experiment [5] (Homo sapiens, A-431, 72 h) it was 0.769 µM. Further, in experiment [4], the GI50 came to 0.0145 µM.

As to `CCc1cc(Nc2ncc(Cl)c(Nc3ccc(-c4ccc5ocnc5c4)cc3P(C)(C)=O)n2)c(OC)cc1N1CCC(N2CCN(C)CC2)CC1` [Compound 17, (5-(Benzo[d]oxazol-5-yl)-2-((5-chloro-2-((5-ethyl-2-methoxy-4-(4-(4-methylpiperazin-1-yl)piperidin-1-yl)phenyl)amino)pyrimidin-4-yl)amino)phenyl)dimethylphosphine oxide], the IC50 came out at 0.0007 µM in experiment [1]; 0.0201 µM in experiment [2]; 0.363 µM in experiment [3]; 2.2 µM in experiment [5] (Homo sapiens, A-431, 72 h). The GI50 in experiment [4] was determined as 0.03 µM.

As to `CCc1cc(Nc2ncc(Cl)c(Nc3ccc(-c4ncc(F)cn4)cc3P(C)(C)=O)n2)c(OC)cc1N1CCC(N2CCN(C)CC2)CC1` [Compound 18, (2-((5-Chloro-2-((5-ethyl-2-methoxy-4-(4-(4-methylpiperazin-1-yl)piperidin-1-yl)phenyl)amino)pyrimidin-4-yl)amino)-5-(5-fluoropyrimidin-2-yl)phenyl)dimethylphosphine oxide], the IC50 is 0.0007 µM in experiment [1]; 0.0203 µM in experiment [2]; 0.126 µM in experiment [3]; 1.27 µM in experiment [5] (Homo sapiens, A-431, 72 h). Besides, the GI50 in experiment [4] worked out at 0.0132 µM.

In the case of `CCc1cc(Nc2ncc(Br)c(Nc3ccc(-c4cnn(C)n4)c(F)c3P(C)(C)=O)n2)c(OC)cc1N1CCC(N2CCN(C)CC2)CC1` [Compound 84, (6-((5-Bromo-2-((5-ethyl-2-methoxy-4-(4-(4-methylpiperazin-1-yl)piperidin-1-yl)phenyl)amino)pyrimidin-4-yl)amino)-2-fluoro-3-(2-methyl-2H-1,2,3-triazol-4-yl)phenyl)dimethylphosphine oxide], the IC50 in experiment [1] came out at 0.0001 µM; in experiment [3], 0.0549 µM; in experiment [5] it was 1.21 µM. For the same compound, the GI50 in experiment [4] turned out to be 0.0058 µM.
